Several values for one entry are separate records, joined by “and”; a condition that tells them apart may be missing. Identical values can stand only once. Entries after “also recorded” stand apart in the source; their conditions may differ.
Legend:
[1] = system: oligodendrocyte progenitor cells; assay: Immunocytochemistry for PLP/DM20 and MBP, count of differentiated cells; format: cell-based, mouse; settings: for cell morphology after long-term exposure: compound B at the lowest concentrations (0.1 μM)
Procedure: Immunodetection of oligodendrocyte and myelin markers was performed. In brief, Oligodendrocyte cells plated on PDL-coated dishes were initially fixed in 2% paraformaldehyde (PFA) for 10 min at room temperature (RT) and then 4% PFA for 15 min, washed three times with PBS and permeabilized with 0.1% Triton X100 for 10 min at RT. After blocking with 3% BSA in PBS for 60 min a RT, the cells were incubated with primary antibodies at the indicated concentrations overnight (ON) at 4° C. The cells were washed three times with cold PBS incubated with secondary antibodies for 45 min at RT, and washed again before mounting. Immunostaining of tissue sections prepared with a sliding microtome (30 μm) was performed. In brief, tris buffered saline (TBS) containing 100 nM Sodium fluoride (TBSS) was used the all dilutions and washes. For antigen retrieval, sections were washed 3 times in TBSS, incubated in 5% methanol and 3% H2O2 for 10 min, washed 2 times, and then incubated in 10% Triton X-100 for 20 min. Blocking of unspecific bonds was performed by incubating the tissue sections with 10% NGS for 1 hr. Primary antibodies were diluted in 3% BSA containing 0.02% Triton X-100 and sections were incubated overnight in this solution. The next day the sections were washed 3 times in TBSS, followed by 1 hr incubation in secondary antibodies (1:1000) at 4° C. After several washes, the sections were mounted using Vectashield (Vector Laboratories, Burlingame, Calif.). Visualization of immunostained cells and tissue was performed on a Leica DMR (Wetzlar, Germany) or a Leica SP5 confocal microscope.
The primary screening to select positive compounds was performed at a standard concentration of 10 μM with cell morphology analysis 48 hrs after treatment. Dose response curves at 48 hrs treatment time were performed to determine the minimum concentration compounds A, A-7 and B needed to induce cell maturation. We assessed oligodendrocyte differentiation by cell morphology changes, green fluorescence in cells generated from or Plp-EGFP transgenic mouse, immunostaining for myelin proteins and western blot for expression of the oligodendrocyte markers PLP/DM20 and 2′,3′, cyclic nucleotide 3′ phosphohydrolase (CNPase). EC50 values were also calculated based on results of western blot for myelin proteins and subsequent band densitometry analysis. Additionally, we followed cell differentiation induced over long time exposure to compounds A and B (7 days, 0.1-10 μM).
Compound A-7-induced oligodendrocyte progenitor maturation was also analyzed in comparison to control cells in immunostaining experiments to detect the myelin proteins MBP and PLP. Positive cells for these markers showing processes formation and membranous structures were counted versus total cells and counterstained with the nuclear dye Dapi after 48 hrs (Tables 3 and 4) and 7 days treatment with 0.1, 1 or 10 μM compound A-7 (FIG. 2, B).

[2] = system: oligodendrocyte progenitor cells; assay: Cell toxicity and viability (MTT, cell death); format: cell-based, mouse; settings: for cell toxicity and viability: concentrations below 50 μM
Procedure: Differentiation induced by selected compounds was further validated by fluorescence microscopy in cells generated from our Plp-EGFP transgenic mouse. Increased fluorescence in treated oligodendrocyte progenitor was indicative of cell maturation and was again scored following the same scale. 13 positive compounds were identified after secondary screening (FIG. 1). These were analyzed for cell toxicity assays by MTT were yellow 3-(4,5-Dimethylthiazol-2-yl)-2,5-diphenyltetrazolium bromide, a tetrazole (MTT) is reduced to purple formazan in the mitochondria of living cells, showing a solution color change measurable by OD620-590 (Data not shown). Further oligodendrocyte progenitor maturation in response to selected compounds was assessed by induction of myelin protein expression as determined by immunocytochemistry and western blot.

[3] = system: cuprizone-fed C57B1/6J mice; assay: Remyelination after cuprizone-mediated demyelination, Black and Gold staining for total myelin; format: in vivo; settings: i.p., two doses; for remyelination effect (Black and Gold stain, corpus callosum): 5-100 mg/kg
Procedure: For in vivo experiments in mice, the cuprizone-mediated demyelination model was implemented as described elsewhere, (Sun et al., 2006; Wu et al., 2008). In brief, 9 week-old C57B1/J6 mice were fed with cuprizone supplemented chow (0.3%, Harlan) during 4-6 weeks. At the end of this period, while the mice were still on cuprizone diet, the animals were injected I.P. with the indicated concentrations of small molecules dissolved in DMSO. 72 hrs later, a second dose was administered and at that point the food was changed to regular chow. 48 hr after the second dose, the animals were sacrificed perfused with 4% paraformaldehyde (PFH) and the brain tissue processed or immunohistochemistry.
Brain tissue staining with Black and Gold to detect total myelin was performed in 30 μm microtome floating sections after three washes in a saline solution (0.9% NaCl). Subsequently, the tissue sections were submerged in a 0.1% Black and Gold solution in saline preheated to 60° C. for 5 min. The tissue was incubated in that solution for 8-10 min. or until achievement of purple color was observed. After washing several times with saline, the staining was fixed with a solution of 2% sodium thiosulfate for 3 min., washed with saline three times and finally mounted and visualized.
Demyelination in mouse brain induced by the copper chelator cuprizone administered in the diet is a well established animal model to study demyelination and subsequent remyelination after cuprizone withdrawal. The effect of cuprizone is evident in several brain areas being the demyeliantion of the corpus callosum the most reliable and consistent. In this study, we analyzed the effect of compounds A, A-7 and B on remyelination of six week cuprizone-fed C57B1/6J mice. Compounds were administered i.p. at the end of the sixth week (5-100 mg/kg) while the mice were still maintained on the cuprizone diet for three more days. At that point, a second injection of compounds was performed and then the mice were returned to regular chow for two more days to allow the natural remyelination process to take place. Mice were then sacrificed and the brain tissue prepared for immunohistochemistry.

| SMILES | cell morphology after long-term exposure ([1]; 7 days after treatment) | percentage of mature cells ([1]; 7 days, 10 μM) | concentrations with toxic effect (induction of cell death) [2] | concentrations with toxic effect (MTT cell viability) ([2]; MTT) | remyelination effect (Black and Gold stain, corpus callosum) [3] | immunostaining for PLP and MBP: expression of myelin proteins ([1]; 10 μM, 48 hr (FIG. 1)) | differentiated cells, percentage of total cells ([1]; 7 days after treatment, 0.1-10 μM, control 9.5%) | Differentiated Cells (IC, % of Control) ([1]; Table 3, 10 μM, 48 hrs) | Differentiated Cells (IC, % of Control) ([1]; Table 4, 1 μM) | Differentiated Cells (IC, % of Control) ([1]; Table 4, 10 μM) | cell toxicity and viability [2] | myelin levels relative to the non-cuprizone-fed animals (Black and Gold) ([3]; 100 mg/kg) | percentage of differentiated cells compared to A treated cells ([1]; 10 μM) | concentration at which induction of oligodendrocyte differentiation reached maximum levels ([1]; 48 hrs and 7 days treatment) | Differentiated Cells (IC, % of Control) ([1]; Table 3, 10 μM, 48 hrs, 10 µM) | Differentiated Cells (IC, % of Control) ([1]; Table 3, 10 μM, 48 hrs, listed as drawing 48, 10 µM) | Differentiated Cells (IC, % of Control) ([1]; Table 4, 1 μM, 1 µM) |
| --- | --- | --- | --- | --- | --- | --- | --- | --- | --- | --- | --- | --- | --- | --- | --- | --- | --- |
| O=[N+]([O-])c1ccc(F)c(NS(=O)(=O)c2ccc(F)cc2)c1 [Compound B, 4-fluoro-N-(2-fluoro-5-nitrophenyl)benzenesulfonamide] | clear morphology changes; also recorded: formation of long-thick processes and major membranous structures | dropped to control levels | > 10 µM | higher than 1 μM | did not detect a measurable induction of myelin recovery |  |  |  |  |  |  |  |  |  |  |  |  |
| CCS(=O)(=O)N1CCN(C(=O)COc2ccc(-c3ccccc3)cc2)CC1 [Compound A, 1-[(4-biphenylyloxy)acetyl]-4-(ethylsulfonyl)piperazine] | clear morphology changes; also recorded: formation of long-thick processes and major membranous structures |  |  |  | highly significant at the lowest administered dose (5 mg/kg); also recorded: enhance remyelination | increased expression | about 25% | 186.1 ± 44.8 n = 4; p <0.05 % of Control | 248.9 ± 47.5 % of Control | 289.3 ± 66.6 % of Control | did not show significant detrimental effects | 80% |  |  |  |  |  |
| CC(C)N1CCN(C(=O)COc2ccc(-c3ccccc3)cc2)CC1 [Compound A-7, 1-(Biphenyl-4-yloxy)acetyl-4-isopropylpiperazine] | formation of long-thick processes and major membranous structures |  |  |  | highly significant remyelination effect; also recorded: enhance remyelination |  |  |  |  | 296 ± 38.06 % of Control | did not show significant detrimental effects |  | 159.1% | 0.1 µM | 296.1 % of Control | 296.1 ± 19 n = 4; p <0.05 % of Control | 343 % of Control and 343.2 ± 52.3 % of Control |
